Results reported in patent US5776720A, “Assay reagent” (priority 1995, dated 1998).
Where a name gives a salt, the structure may show the parent alone. Numbered stars: 1 amine (or outer) side, 2 acyl side, 3 side chain; on linkers, the order of the positions; unused ones are H or OH. Bridge positions count the residues as written; N and C are the ends. Peptide text beside a SMILES is read from it. I, II: the chains in the order shown. Rhodamine110 = O=C1OC2(c3ccc(N[*:1])cc3Oc3cc(N[*:2])ccc32)c2ccccc21

Assays:
Assay type in all cases: cell-based, human
Conditions in all cases: normal donors
[1] = test system: lymphocytes; experiment: Normal leukocyte enzyme activity (Table 3A), lymphocytes; parameters: unit not given here
Source text: (§1) The measured fluorescence intensity can be converted from mean channel fluorescence (in peak or integrated mode) to MESF (molecules of equivalent soluble fluorochrome, Flow Cytometry Standards Corp. , San Juan, Puerto Rico) or International Units of hydrolysis per cell. A normal range of enzyme activity is established by assaying males and females in sufficient quantity to characterize the population levels statistically.
(§2) A normal in house adult donor pool was drawn, recording sex and determining that no known disease state was present at the time of sample draw. Criteria for rejecting samples included patients under medication, patients with infection or inflammation of any type, colds and flu as well as any known medical illness such as cancer, heart ailment and high blood pressure. A donor list of 75 patients has been developed and a mean and 2 sd range established. A subgroup of "super normals" was developed from this list by examining the 75 patients to determine which group falls closest to the mean for all enzymes in all cell types tested. These patients were used as the "wellness index" or best group of "normalcy" patients. If a study required the use of children or newborns then this same format was used to develop a data base for these age groups.

[2] = test system: monocytes; experiment: Normal leukocyte enzyme activity (Table 3A), monocytes; parameters: unit not given here
Source text: as §1, §2

[3] = test system: granulocytes; experiment: Normal leukocyte enzyme activity (Table 3A), granulocytes; parameters: unit not given here
Source text: as §1, §2

[4] = test system: erythrocytes; experiment: Normal erythrocyte enzyme activity (Table 3B)
Protocol: A sample, consisting of whole blood (in EDTA, Heparin or ACD) or dissociated tissue or body fluids (synovial fluid) or cell culture media is obtained and stored in a manner so as not to decrease viability. The sample is washed sufficiently to remove plasma, media, body fluid, debris and extra-cellular enzymes. The wash media consists of a physiologically balanced buffered salt solution. The washed cells are incubated at 37° C. 50 μL of sample and 25 μL of substrate media are mixed together and allowed to incubate at 37° C. for a predetermined amount of time. At the end of the incubation period, the sample is then measured for fluorescence.
as §2

Row | Compound | NORMAL LEUKOCYTE ENZYME ACTIVITY, LYMPHS Mean [1] | NORMAL LEUKOCYTE ENZYME ACTIVITY, MONOS Mean [2] | NORMAL LEUKOCYTE ENZYME ACTIVITY, GRANS Mean [3] | NORMAL E[…] ACTIVITY MEAN [4]
1 | CC(C)C[C@H](NC(=O)CNC(=O)[C@@H](N)CC(C)C)C(=O)NCC(=O)Nc1ccc2c(c1)Oc1cc(NC(=O)CNC(=O)[C@H](CC(C)C)NC(=O)CNC(=O)[C@@H](N)CC(C)C)ccc1C21OC(=O)c2ccccc21 [LGLG, (H--L--Leu--Gly--Leu--Gly)2 Rho 110.2TFA] (I: H-LGLG / II: H-LGLG; linker I:C-II:C via Rhodamine110) | 1.42 | 11.36 | 4.08 | 0.122
2 | O=C1OC2(c3ccc(OP(=O)(O)O)cc3Oc3cc(OP(=O)(O)O)ccc32)c2ccccc21 [DPO4, (PO4)2 fluorescein] | 54.29 | 148.32 | 85.42 | 0.151
3 | CC(=O)Oc1ccc2c(c1)Oc1cc(OC(C)=O)ccc1C21OC(=O)c2ccccc21 [FDA, fluorescein diacetate, reference compound] | 13.38 |  | 68.37 | 0.126
4 | N=C(N)NCCC[C@H](NC(=O)OCc1ccccc1)C(=O)Nc1ccc2c(c1)Oc1cc(NC(=O)[C@H](CCCNC(=N)N)NC(=O)OCc3ccccc3)ccc1C21OC(=O)c2ccccc21 (stereo partly drawn) [Z--ARG] | 2.02 | 16.80 | 7.22 | 0.106
5 | CC(=O)Oc1ccc2c(c1)Oc1cc(OC(C)=O)ccc1C21OC(=O)c2ccccc21 [FDA--NAF, fluorescein diacetate, reference compound] | 17.98 | 93.36 | 81.99 | 0.136
6 | NC(=O)CC[C@H](N)C(=O)N[C@@H](CO)C(=O)Nc1ccc2c(c1)Oc1cc(NC(=O)[C@H](CO)NC(=O)[C@@H](N)CCC(N)=O)ccc1C21OC(=O)c2ccccc21 [QS, (H--L--Gln--Ser)2 Rho 110.2TFA] | 1.70 | 10.66 | 4.67 | 
7 | CC(=O)Oc1ccc2c(c1)Oc1cc(OC(C)=O)ccc1C21OC(=O)c2ccccc21 [DIACET 6.5, Fluorescein (acetate)2, reference compound] | 109.89 | 534.00 | 408.88 | 
8 | (Val-Lys)2 Rho 110 (modified) [VK--M] | 2.05 | 43.37 | 4.31 | 
9 | CCCCCCC(=O)Oc1ccc2c(c1)Oc1cc(OC(=O)CCCCCC)ccc1C21OC(=O)c2ccccc21 [DIHEP 6.5, FL(heptanoate)2] | 9.17 | 32.25 | 18.57 | 
10 | C[C@H](NC(=O)CNC(=O)[C@H](Cc1ccccc1)NC(=O)CN)C(=O)Nc1ccc2c(c1)Oc1cc(NC(=O)[C@H](C)NC(=O)CNC(=O)[C@H](Cc3ccccc3)NC(=O)CN)ccc1C21OC(=O)c2ccccc21 [GFGA, (Gly-Phe-Gly-Ala)2 Rho 110] (I: H-GFGA / II: H-GFGA; linker I:C-II:C via Rhodamine110) |  | 1.01 |  | 0.131
11 | CCCCC(=O)Oc1ccc2c(c1)Oc1cc(OC(=O)CCCC)ccc1C21OC(=O)c2ccccc21 [DIVAL 6.5, FL(valerate)2] | 33.13 | 184.51 | 92.81 | 
12 | C[C@H](NC(=O)[C@@H](N)CCCCN)C(=O)Nc1ccc2c(c1)Oc1cc(NC(=O)[C@H](C)NC(=O)[C@@H](N)CCCCN)ccc1C21OC(=O)c2ccccc21 [KA--M, (Lys-Ala)2 Rho 110] | 0.55 | 8.74 | 1.74 | 
13 | C[C@H](NC(=O)OCc1ccccc1)C(=O)N[C@@H](C)C(=O)Nc1ccc2c(c1)Oc1cc(NC(=O)[C@H](C)NC(=O)[C@H](C)NC(=O)OCc3ccccc3)ccc1C21OC(=O)c2ccccc21 [Z--AA, (Z--Ala--Ala)2 Rho 110] | 151.20 | 328.25 | 363.20 | 
14 | CCCC(=O)Oc1ccc2c(c1)Oc1cc(OC(=O)CCC)ccc1C21OC(=O)c2ccccc21 [DIBUT 6.5, FL(butyrate)2] | 4.08 | 10.37 | 6.43 | 
15 | CCCCCC(=O)Oc1ccc2c(c1)Oc1cc(OC(=O)CCCCC)ccc1C21OC(=O)c2ccccc21 [DIHEX 6.5, FL(hexanoate)2] | 15.10 | 72.87 | 33.84 | 
16 | CC(C)C[C@H](NC(=O)[C@@H](N)CC(C)C)C(=O)N[C@@H](CCCNC(=N)N)C(=O)Nc1ccc2c(c1)Oc1cc(NC(=O)[C@H](CCCNC(=N)N)NC(=O)[C@H](CC(C)C)NC(=O)[C@@H](N)CC(C)C)ccc1C21OC(=O)c2ccccc21 (stereo partly drawn) [LLR, (H--L Leu--Leu--Arg)2 Rho 110.4TFA] | 4.09 | 54.32 | 9.46 | 
17 | O=C1OC2(c3ccc(NC(=O)[C@@H]4CCCN4)cc3Oc3cc(NC(=O)[C@@H]4CCCN4)ccc32)c2ccccc21 [PRO, (H--L--Pro)2 --Rho 110.2TFA] | 1.70 | 6.83 | 9.19 | 
18 | C[C@H](N)C(=O)N[C@@H](C)C(=O)Nc1ccc2c(c1)Oc1cc(NC(=O)[C@H](C)NC(=O)[C@H](C)N)ccc1C21OC(=O)c2ccccc21 [AA--TFA, (H--L--Ala--Ala)2 Rho 110.2TFA] | 56.95 | 158.31 | 154.81 | 
19 | CCCCCCCCCCCCCCCC(=O)Oc1ccc2c(c1)Oc1cc(OC(=O)CCCCCCCCCCCCCCC)ccc1C21OC(=O)c2ccccc21 [DIPAL 7.5, FL(palmitate)2] | 0.14 | 0.30 | 0.14 | 
20 | (carbobenzyloxycarbonyl-Gly-Pro)2 Rho 110 (modified) [Z--GP--M] | 53.74 | 119.81 | 130.62 | 
21 | C[C@H](N)C(=O)Nc1ccc2c(c1)Oc1cc(NC(=O)[C@H](C)N)ccc1C21OC(=O)c2ccccc21 [ALA, (Ala)2 Rho 110] | 75.85 | 172.33 | 149.02 | 
22 | CC(C)C[C@H](NC(=O)CN)C(=O)Nc1ccc2c(c1)Oc1cc(NC(=O)[C@H](CC(C)C)NC(=O)CN)ccc1C21OC(=O)c2ccccc21 [GL, (H Gly--Leu)2 Rho 110.2FTA] | 9.42 | 41.78 | 29.16 | 
23 | O=C(NCC(=O)N1CCC[C@H]1C(=O)Nc1ccc2c(c1)Oc1cc(NC(=O)[C@@H]3CCCN3C(=O)CNC(=O)OCc3ccccc3)ccc1C21OC(=O)c2ccccc21)OCc1ccccc1 [Z--GP, (carbobenzyloxycarbonyl-Gly-Pro)2 Rho 110] | 107.56 | 225.10 | 240.99 | 
24 | C[C@H](NC(=O)[C@@H](N)CCCCN)C(=O)Nc1ccc2c(c1)Oc1cc(NC(=O)[C@H](C)NC(=O)[C@@H](N)CCCCN)ccc1C21OC(=O)c2ccccc21 [KA, (Lys-Ala)2 Rho 110] | 11.47 | 39.35 | 29.15 | 
25 | C[C@H](NC(=O)OCc1ccccc1)C(=O)NCC(=O)Nc1ccc2c(c1)Oc1cc(NC(=O)CNC(=O)[C@H](C)NC(=O)OCc3ccccc3)ccc1C21OC(=O)c2ccccc21 [Z--AG, (Z--Ala--Gly)2 Rho 110] | 15.17 | 34.51 | 33.19 | 
26 | N=C(N)NCCC[C@H](N)C(=O)Nc1ccc2c(c1)Oc1cc(NC(=O)[C@@H](N)CCCNC(=N)N)ccc1C21OC(=O)c2ccccc21 (stereo partly drawn) [ARG, (H--L--Arg)2 Rho 110.4TFA] | 1.47 | 10.34 | 5.16 | 
